Assay [1] is described as follows: DRUGMATRIX: Calcium Channel Type L, Phenylalkylamine radioligand binding (ligand: [3H] (-)-Desmethoxyverapamil (D-888)). The format is cell membranes, Rattus norvegicus, Wistar, Brain, Membrane. The conditions noted are these: Not Active = under 50% inhibition at 10 µM.
In assay [2] the target is T1, Type-2 angiotensin II receptor (Homo sapiens, UniProt P50052). Note: in other assays of this panel Not Active means under 50% inhibition at 10 µM.
T1 sequence (P50052 whole entry): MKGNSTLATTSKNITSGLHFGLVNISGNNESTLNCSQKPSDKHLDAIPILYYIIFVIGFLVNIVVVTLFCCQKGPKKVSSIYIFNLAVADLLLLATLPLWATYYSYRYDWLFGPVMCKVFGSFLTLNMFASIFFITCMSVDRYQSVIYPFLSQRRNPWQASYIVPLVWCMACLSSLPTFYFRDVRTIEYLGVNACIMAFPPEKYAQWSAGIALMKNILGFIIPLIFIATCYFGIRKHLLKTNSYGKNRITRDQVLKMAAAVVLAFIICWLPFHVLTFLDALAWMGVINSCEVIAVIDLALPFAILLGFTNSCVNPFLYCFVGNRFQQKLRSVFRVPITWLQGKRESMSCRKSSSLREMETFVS
In kind it is cell-based. The conditions noted are these: cho-k1.

For another assay, the target named is Melanocortin receptor 3 (Homo sapiens, UniProt P41968). In kind it is cell membranes, HEK293, Membrane. The conditions noted are these: hek293. Note: in other assays of this panel Not Active means under 50% inhibition at 10 µM.
A further assay deals with T2, Progesterone receptor (Bos taurus, UniProt Q690N0).
T2 sequence (Q690N0 whole entry): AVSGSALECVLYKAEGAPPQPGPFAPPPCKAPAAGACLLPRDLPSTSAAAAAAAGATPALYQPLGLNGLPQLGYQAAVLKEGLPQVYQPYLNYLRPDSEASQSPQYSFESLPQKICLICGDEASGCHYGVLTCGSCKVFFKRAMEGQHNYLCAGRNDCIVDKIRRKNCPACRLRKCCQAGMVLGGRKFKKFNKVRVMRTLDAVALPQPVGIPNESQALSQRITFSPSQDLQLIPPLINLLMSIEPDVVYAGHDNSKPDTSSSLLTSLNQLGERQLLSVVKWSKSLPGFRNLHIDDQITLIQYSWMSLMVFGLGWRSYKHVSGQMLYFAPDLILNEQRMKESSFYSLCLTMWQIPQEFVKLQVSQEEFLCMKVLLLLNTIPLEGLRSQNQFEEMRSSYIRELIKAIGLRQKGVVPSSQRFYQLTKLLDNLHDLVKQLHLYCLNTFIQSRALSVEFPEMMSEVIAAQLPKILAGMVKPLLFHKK
In words: DRUGMATRIX: Progesterone radioligand binding (ligand: [3H] R-5020). The conditions noted are these: Not Active = under 50% inhibition at 10 µM. In kind it is tissue-based, Uterus.

Assay [3] addresses Epidermal growth factor receptor (Homo sapiens, UniProt P00533). Nature of the assay: DRUGMATRIX: Protein Tyrosine Kinase, EGF Receptor enzyme inhibition (substrate: Poly(Glu:Tyr)). The format is cell-based, Insect cells. The settings on record: Not Active = under 50% inhibition at 10 µM.
For assay [4], the target named is 5-hydroxytryptamine receptor 1B (Rattus norvegicus, UniProt P28564). In kind it is cell membranes, Wistar, Cerebral cortex, Membrane. Note: in other assays of this panel Not Active means under 50% inhibition at 10 µM.

Experimental findings from ChEMBL document CHEMBL1909046, “DrugMatrix in vitro pharmacology data” are described below.

A word on the IC50: it is the point on the concentration scale where inhibition reaches its midpoint. A word on the Ki: it is the equilibrium dissociation constant of an inhibitor or competing ligand from its target.

Sequence of 5-hydroxytryptamine receptor 1B (P28564 whole entry): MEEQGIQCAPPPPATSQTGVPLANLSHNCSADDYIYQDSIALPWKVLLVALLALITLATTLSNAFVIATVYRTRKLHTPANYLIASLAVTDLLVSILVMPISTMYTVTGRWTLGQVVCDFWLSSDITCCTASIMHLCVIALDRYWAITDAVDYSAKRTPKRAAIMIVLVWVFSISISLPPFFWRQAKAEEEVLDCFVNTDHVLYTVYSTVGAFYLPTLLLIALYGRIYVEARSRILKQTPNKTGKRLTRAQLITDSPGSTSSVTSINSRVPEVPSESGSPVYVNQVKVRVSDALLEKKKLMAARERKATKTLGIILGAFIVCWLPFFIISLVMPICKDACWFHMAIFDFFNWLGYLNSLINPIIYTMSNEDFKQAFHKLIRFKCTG
Sequence of Melanocortin receptor 3 (P41968 whole entry): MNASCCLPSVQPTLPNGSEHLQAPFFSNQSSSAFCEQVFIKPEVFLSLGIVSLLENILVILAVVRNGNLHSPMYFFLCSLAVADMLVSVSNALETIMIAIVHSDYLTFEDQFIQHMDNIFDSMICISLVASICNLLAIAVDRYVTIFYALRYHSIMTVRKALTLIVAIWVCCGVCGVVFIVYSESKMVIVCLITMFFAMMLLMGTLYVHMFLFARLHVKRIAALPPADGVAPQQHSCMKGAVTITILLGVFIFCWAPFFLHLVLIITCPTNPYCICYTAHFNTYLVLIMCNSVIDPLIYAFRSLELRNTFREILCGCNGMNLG

Take `Clc1cccc(Cl)c1NC1=NCCN1` [CLONIDINE]: the IC50 entry (in assay [1]; in assay [2]; against Melanocortin receptor 3; at Progesterone receptor; in assay [3] (insect cells); in assay [4]) was “Not Active” in each case. The inhibitory constant (Ki) entry in assay [1] is on record as “Not Active”.

For the molecule `C=C(C)C1(O)OC(=O)C=C1OC` (stereo unspecified) [PENICILLIC ACID], the IC50 entry (in assay [1]; in assay [2]; against Melanocortin receptor 3; at Progesterone receptor; in assay [3] (insect cells); in assay [4]) was “Not Active” each time. In assay [1], the Ki result is listed as “Not Active”.

Regarding `C[C@H](CS)C(=O)N1CCC[C@H]1C(=O)O` [CAPTOPRIL], the IC50 result (in assay [1]; in assay [2]; at Melanocortin receptor 3; at Progesterone receptor; in assay [3] (insect cells); in assay [4]) was “Not Active” in each case. Further, the inhibition constant (Ki) entry in assay [1] is on record as “Not Active”.

For the molecule `C[C@H]1O[C@@H](O[C@H]2[C@@H](O)C[C@H](O[C@H]3[C@@H](O)C[C@H](O[C@H]4CC[C@@]5(C)[C@H](CC[C@@H]6[C@@H]5C[C@@H](O)[C@]5(C)[C@@H](C7=CC(=O)OC7)CC[C@]65O)C4)O[C@@H]3C)O[C@@H]2C)C[C@H](O)[C@@H]1O` [DIGOXIN], the half-inhibitory concentration (IC50) result (in assay [1]; in assay [2]; at Melanocortin receptor 3; at Progesterone receptor; in assay [3] (insect cells); in assay [4]) was “Not Active” each time. The Ki entry in assay [1] is given as “Not Active”.

Regarding `CN(C)C(=O)Oc1cc(OC(=O)N(C)C)cc(C(O)CNC(C)(C)C)c1` (stereo unspecified) [BAMBUTEROL], the IC50 result (in assay [1]; in assay [2]; against Melanocortin receptor 3; at Progesterone receptor; in assay [3] (insect cells); in assay [4]) was “Not Active” throughout. Moreover, the Ki entry in assay [1] is “Not Active”.

As to `CC(C)[C@H]1C(=O)N2CCC[C@H]2[C@]2(O)O[C@](NC(=O)[C@@H]3C=C4c5cccc6[nH]cc(c56)C[C@H]4N(C)C3)(C(C)C)C(=O)N12` [ERGOCORNINE], the IC50 result in assay [1] is “Not Active”; in assay [2] it was “Not Active”; against Melanocortin receptor 3, “Not Active”; at Progesterone receptor it was “Not Active”; in assay [3] (insect cells), “Not Active”; in assay [4] (read-out: IC50), 30 nM. Also, the Ki entry in assay [1] is “Not Active”; in assay [4] (read-out: Ki) it was 19 nM.

`CN(C)CCCN1c2ccccc2Sc2ccccc21` [PROMAZINE]: the IC50 is 1190 nM in assay [1] (read-out: IC50); “Not Active” in assay [2]; “Not Active” against Melanocortin receptor 3; “Not Active” at Progesterone receptor; “Not Active” in assay [3] (insect cells); “Not Active” in assay [4]. Moreover, the inhibitory constant (Ki) in assay [1] (read-out: Ki) is 1160 nM.

As to `C[C@](N)(Cc1ccc(O)c(O)c1)C(=O)O` [METHYLDOPA], the 50% inhibitory concentration (IC50) result in assay [1] is “Not Active”; in assay [2], “Not Active”; at Melanocortin receptor 3, “Not Active”; at Progesterone receptor, “Not Active”; in assay [3] (read-out: IC50), 5230 nM; in assay [4] it was “Not Active”. The Ki entry in assay [1] was “Not Active”.

In the case of `CCOC(=O)C1=C(COCCN)NC(C)=C(C(=O)OC)C1c1ccccc1Cl` (stereo unspecified) [AMLODIPINE], the half-inhibitory concentration (IC50) entry (in assay [1]; in assay [2]; on Melanocortin receptor 3; at Progesterone receptor; in assay [3] (insect cells); in assay [4]) was “Not Active” each time. Further, in assay [1], the Ki result is “Not Active”.

Take LEAD (II) ACETATE: the IC50 entry (in assay [1]; in assay [2]; on Melanocortin receptor 3; at Progesterone receptor; in assay [3] (insect cells); in assay [4]) was “Not Active” each time. Besides, the inhibitory constant (Ki) entry (in assay [1]; in assay [2]; on Melanocortin receptor 3; on Progesterone receptor; in assay [3] (insect cells); in assay [4]) was “Not Active” in each case.

Take `CC(O)CO` (stereo unspecified) [PROPYLENE GLYCOL]: the IC50 result (in assay [1]; in assay [2]; against Melanocortin receptor 3; at Progesterone receptor; in assay [3] (insect cells); in assay [4]) was “Not Active” each time. Besides, the inhibition constant Ki entry in assay [1] is reported as “Not Active”.

On to `CCCC1O[C@@H]2C[C@H]3[C@@H]4CCC5=CC(=O)C=C[C@]5(C)[C@H]4[C@@H](O)C[C@]3(C)[C@]2(C(=O)CO)O1` (stereo partly specified) [BUDESONIDE], for which the IC50 result was “Not Active” in assay [1]; “Not Active” in assay [2]; “Not Active” against Melanocortin receptor 3; 210 nM at Progesterone receptor (read-out: IC50); “Not Active” in assay [3] (insect cells); “Not Active” in assay [4]. The Ki entry was “Not Active” in assay [1] and 27 nM on Progesterone receptor (read-out: Ki).

In the case of `CC1Cc2ccccc2N1NC(=O)c1ccc(Cl)c(S(N)(=O)=O)c1` (stereo unspecified) [INDAPAMIDE], the half-inhibitory concentration (IC50) result (in assay [1]; in assay [2]; against Melanocortin receptor 3; on Progesterone receptor; in assay [3] (insect cells); in assay [4]) was “Not Active” each time. For the same molecule, the inhibition constant (Ki) entry in assay [1] is listed as “Not Active”.

`CCC1(c2ccc(N)cc2)CCC(=O)NC1=O` (stereo unspecified) [AMINOGLUTETHIMIDE]: the IC50 entry (in assay [1]; in assay [2]; against Melanocortin receptor 3; on Progesterone receptor; in assay [3] (insect cells); in assay [4]) was “Not Active” in each case. For the same molecule, in assay [1], the inhibition constant Ki result is recorded as “Not Active”.

Consider `CNCCCN1c2ccccc2CCc2ccccc21` [DESIPRAMINE], for which the IC50 result (in assay [1]; in assay [2]; at Melanocortin receptor 3; on Progesterone receptor; in assay [3] (insect cells); in assay [4]) was “Not Active” each time. Further, the Ki result in assay [1] is reported as “Not Active”.

Regarding `Cc1ccccc1N1C(=O)c2cc(S(N)(=O)=O)c(Cl)cc2NC1C` (stereo unspecified) [METOLAZONE], the IC50 result (in assay [1]; in assay [2]; on Melanocortin receptor 3; on Progesterone receptor; in assay [3] (insect cells); in assay [4]) was “Not Active” each time. Also, the Ki result in assay [1] was “Not Active”.

As to `C1CCC(C(CC2CCCCN2)C2CCCCC2)CC1` (stereo unspecified) [PERHEXILINE], the 50% inhibitory concentration (IC50) in assay [1] (read-out: IC50) was 1350 nM; in assay [2], “Not Active”; against Melanocortin receptor 3, “Not Active”; at Progesterone receptor it was “Not Active”; in assay [3] (read-out: IC50), 1490 nM; in assay [4] it was “Not Active”. Besides, the Ki in assay [1] (read-out: Ki) was determined as 1310 nM.

As to `N=C(N)NCCN1CCCCCCC1` [GUANETHIDINE], the IC50 entry (in assay [1]; in assay [2]; on Melanocortin receptor 3; at Progesterone receptor; in assay [3] (insect cells); in assay [4]) was “Not Active” each time. In assay [1], the Ki result was “Not Active”.

With `CC(C)CN(C[C@@H](O)[C@H](Cc1ccccc1)NC(=O)O[C@H]1CCOC1)S(=O)(=O)c1ccc(N)cc1`, the concentration for half-maximal inhibition (IC50) entry (in assay [1]; in assay [2]; against Melanocortin receptor 3; on Progesterone receptor; in assay [3] (insect cells); in assay [4]) was “Not Active” in each case. Further, the Ki result in assay [1] was “Not Active”.

For the molecule `O=c1[nH]c(=O)n([C@H]2C[C@H](O)[C@@H](CO)O2)cc1I` [IDOXURIDINE], the IC50 result (in assay [1]; in assay [2]; against Melanocortin receptor 3; at Progesterone receptor; in assay [3] (insect cells); in assay [4]) was “Not Active” in each case. Besides, the inhibition constant Ki result in assay [1] was “Not Active”.

For `C[C@H](CCC(=O)O)[C@H]1CC[C@H]2[C@@H]3[C@H](O)C[C@@H]4C[C@H](O)CC[C@]4(C)[C@H]3C[C@H](O)[C@]12C` [CHOLIC ACID], the IC50 entry (in assay [1]; in assay [2]; against Melanocortin receptor 3; at Progesterone receptor; in assay [3] (insect cells); in assay [4]) was “Not Active” each time. Moreover, the inhibition constant Ki entry in assay [1] is “Not Active”.

Consider `O=C(CCCN1CC=C(n2c(=O)[nH]c3ccccc32)CC1)c1ccc(F)cc1` [DROPERIDOL], for which the 50% inhibitory concentration (IC50) in assay [1] (read-out: IC50) was 4160 nM; in assay [2], “Not Active”; against Melanocortin receptor 3, “Not Active”; on Progesterone receptor, “Not Active”; in assay [3] (insect cells), “Not Active”; in assay [4], “Not Active”. Moreover, the inhibition constant (Ki) in assay [1] (read-out: Ki) was 4050 nM.
